# ChEMBL document CHEMBL1157539, “Thousands of chemical starting points for antimalarial lead identification” (Nature, 2010)
# Test system: Plasmodium falciparum
# Assay: GSK_TCMDC: Inhibition of Plasmodium falciparum 3D7 in whole erythrocytes, using parasite LDH activity as an index of growth.
# Type: functional, organism-based
SMILES,"XC50 (Plasmodium falciparum, 3D7)",XC50
Cc1cc(Nc2ncc(Cl)c(Nc3ccccc3C(N)=O)n2)n[nH]1,811 nM,–
CN1CCN(S(=O)(=O)c2ccc3nccc(Nc4ccc(Oc5ccccc5)cc4)c3c2)CC1,818 nM,–
CC[C@H]1CN2CC[C@H]1C[C@H]2[C@H](O)c1cc(-c2ccc(F)cc2)nc2ccc(OC)cc12,49.7 nM,–
Cc1ccc(F)c(NC(=O)c2c(-c3c(F)cccc3Cl)noc2C)c1,934 nM,–
CC(C)CNCc1cccc(-c2ccccc2CN(C(=O)NCCc2ccccc2)C2CCN(Cc3ccccc3)CC2)c1,1170 nM,–
c1cc(COc2ccc(C3=NCCN3)cc2)nc(COc2ccc(C3=NCCN3)cc2)c1,147 nM,–
CCC(C)NC(=O)Nc1ccc(-c2cccc(-c3nc4cc(C(F)(F)F)ccc4[nH]3)c2)cc1 (stereo not drawn),624 nM,–
CC(C)Cn1ccc2c3c(N)nc(N)nc3ccc21,34.2 nM,–
COc1ccc2[nH]ccc(=NN=Cc3ccncc3)c2c1,584 nM,–
O=C(Nc1ccc(S(=O)(=O)N2CCCC2)cc1)c1cc(-c2cccnc2)nc2ccc(Cl)cc12,300 nM,–
CCn1c(C2CCN(CCC3CCN(C(=O)/C=C/c4ccc(Cl)c(Cl)c4)CC3)CC2)nc2ccccc21,1080 nM,–
Cc1cccc2nc(-c3ccc(-c4cccc(CN5CCC(C(N)=O)CC5)c4)cc3)[nH]c12,1770 nM,–
COC(=O)C1=CNC=C(C(=O)OC)C1c1ccc(Cl)c([N+](=O)[O-])c1,676 nM,–
Cc1cc(=NN=Cc2ccccc2Cl)c2cc(F)ccc2[nH]1,750 nM,–
COc1ccc(-c2cccc(NC(=O)c3cccc(C#N)c3)c2)cc1CN1CCCN(C)CC1,190 nM,–
COc1ccc2nccc([C@@H](O)CN3CCC(NC(=O)C(c4cc5ccccc5o4)N4CCN(c5ccc(F)cc5)CC4)CC3)c2c1 (stereo partly drawn),197 nM,–
COc1ccccc1CCNc1nc(C)cc(N[C@@H](CC(C)C)C(=O)NCc2cccc(F)c2)n1,973 nM,–
CC(=O)Oc1cc(C(=O)Nc2ccc(Cl)cc2)cc2ccccc12,856 nM,–
CN(Cc1cccc(F)c1)C1CCN(c2cc(NC(=O)c3cccc(F)c3)ccn2)CC1,1160 nM,–
CC(C)(CNCc1ccc(C(F)(F)F)cc1)c1nc(-c2ccnc(N)n2)c(-c2ccc(Cl)c(O)c2)[nH]1,152 nM,–
CC(C)CNCc1ccc(-c2cccc(CN(C(=O)NCCc3ccccc3)C3CCN(Cc4ccccc4)CC3)c2)cc1,579 nM,–
O=C(Nc1cccc(CN2CCCN(CCc3ccccc3)CC2)c1)c1cc2ccccc2s1,1130 nM,–

SMILES,"XC50 (Plasmodium falciparum, 3D7)",XC50
Cc1cccc2nc(-c3ccc(-c4cccc(CNCc5ccccc5)c4)s3)[nH]c12,741 nM,–
Cc1cc(OC(C)C(=O)N2CCc3ccccc32)ccc1Cl (stereo not drawn),785 nM,–
CCCCCCN1CCCN(Cc2ccc(C(=O)Nc3ccc(C(C)(C)C)cc3)cc2)CC1,744 nM,–
Cc1cc(=NN=Cc2ccccn2)c2cc(F)ccc2[nH]1,761 nM,–
CC(C)NCc1ccc(-c2ccc(NS(=O)(=O)c3cccc4cccnc34)cc2)cc1,807 nM,–
Cc1[nH]c(C)c(-c2ccc(OCc3ccc(F)cc3)nc2)c(=O)c1Br,203 nM,–
CCCCCN1CCC(CNS(=O)(=O)c2ccc(C(=O)Nc3cccc(C(F)(F)F)c3)cc2)CC1,747 nM,–
O=C(C=Cc1ccc(F)cc1)NC1CCC(CCN2CCc3ccc(-c4cnccn4)cc3CC2)CC1 (stereo not drawn),695 nM,–
NC1CCN(CCc2ccc(NS(=O)(=O)c3cccc4ccccc34)cc2)CC1,1700 nM,–
COc1cc2nc(N3CCN(c4nc(N)c5cc(OC)c(OC)cc5n4)CC3)nc(N)c2cc1OC,146 nM,–
O=C(CCn1c2ccccc2c2ccccc21)NN=Cc1ccco1,588 nM,–
Nc1nccc2ccc(-c3ccc(Oc4ccccc4)cc3)cc12,278 nM,–
CCn1c(-c2ccccc2)cc2nnc3ccccc3c21,769 nM,–
c1ccc(CN2CCc3cc4nccc(N5CCNCC5)c4cc32)cc1,400 nM,–
N#Cc1cncc(-c2nc3c(N4CCC(Cc5ccccc5)CC4)cccc3n2CCNCc2ccccc2)c1,573 nM,–
COc1ccc(CCNCCCCCCNCCc2ccc(Cl)c(Cl)c2)cc1OC,926 nM,–
Cc1cccc2nc(-c3ccc(-c4cccc(NC(=O)C(C)CN(C)C)c4)cc3)[nH]c12 (stereo not drawn),652 nM,–
CC1(C)NC(N)=NC(=N)N1OCc1ccc(-c2ccccc2)cc1,3.2 nM,–
Oc1cc(Nc2ccnc3cc(I)ccc23)ccc1F,740 nM,–
Fc1ccc2[nH]c(-c3cccc(-c4ccc(CNCc5ccccc5)cc4)c3)nc2c1,266 nM,–
CCN(CCCN1CCCCC1)c1cc(C)nc(Nc2ccc(Cl)c(C(F)(F)F)c2)n1,173 nM,–
CCOC(=O)c1ccc(NC(=O)Nc2cccc(-c3ccc(-c4nc5ccccc5[nH]4)cc3)c2)cc1,212 nM,–

SMILES,"XC50 (Plasmodium falciparum, 3D7)",XC50
CN1CCN(c2ccnc3ccc(NC(=O)Nc4ccc(-c5ccncc5)c(C#N)c4)cc23)CC1,158 nM,–
COc1ccc(-c2cccc(NC(=O)c3cccc(C#N)c3)c2)cc1CNC(C)C,694 nM,–
OC(CNc1ccnc(Nc2cccc(Cl)c2)n1)c1ccc(C(F)(F)F)cc1 (stereo not drawn),768 nM,–
COc1cc(Cc2cnc(N)nc2N)cc(OC)c1OCCCCCN1C(=O)c2ccccc2C1=O,618 nM,–
CCOc1ccc(-c2noc(-c3c[nH]c4ccccc4c3=O)n2)cc1,205 nM,–
Cc1ccc(NC(=O)Nc2ccc(Cl)c(C(F)(F)F)c2)cc1-c1ccc(C(=O)NCCN2CCOCC2)cc1,811 nM,–
Cc1[nH]c(C)c([N+](=O)[O-])c(=O)c1-c1ccc(Oc2ccc(OC(F)(F)F)cc2)cc1,247 nM,–
Cc1noc(C)c1-c1cccc(CNCc2ccc(-c3ccc(-c4nc5cc(C(F)(F)F)ccc5[nH]4)cc3)cc2)c1,172 nM,–
O=C(Nc1ccc2c(c1)CCC2)N[C@H]1CCN(Cc2ccc(OCCCN3CCCCC3)cc2)C1,864 nM,–
CCCN(Cc1nnc(-c2ccco2)o1)C(=O)C1CCN(c2ncc(C(F)(F)F)cc2Cl)CC1,691 nM,–
COc1ccc(NC(=O)c2csc(-c3cc(NC(=O)c4ccnc(N5CCCC5)c4)ccc3C)c2)cc1N1CCN(C)CC1,660 nM,–
N#Cc1ccc(N2CCN(Cc3ccc(-c4ccc(-c5nc6ccccc6[nH]5)s4)cc3)CC2)nc1,1080 nM,–
O=C(Nc1ccc(-c2cccc(-c3nc4cc(C(F)(F)F)ccc4[nH]3)c2)cc1)c1ccoc1,829 nM,–
O=C(/C=C/c1cccc2ccccc12)NC1CCC(CN2CCC(c3c[nH]c4ccccc34)CC2)CC1 (stereo not drawn),666 nM,745 nM
COc1ccc(NC(=O)c2ccc(-c3nc(-c4ccc(Cl)cc4)cs3)cc2)cc1N1CCN(C)CC1,921 nM,–
CCCCNC(=O)C(C)NC(=O)c1ccc(O)c(-c2ccc(Cl)c(Cl)c2)c1 (stereo not drawn),823 nM,–
CC(C)n1ncc2c3c(N)nc(N)nc3ccc21,333 nM,–
CCn1c2c(c(=N)c3ccccc31)CCC2,505 nM,–
COc1ccc2nccc([C@@H](O)CN3CCC(NCc4nc5c(cc4F)SCC(=O)N5)C(F)C3)c2c1 (stereo partly drawn),725 nM,–
CCCNCc1ccc(-c2ccc(CN(CCOC)C(=O)c3ccco3)cc2)nc1,997 nM,–
COC(C(=O)OCCC1CCCN1C)(c1ccccc1)C1CCCCC1 (stereo not drawn),711 nM,–
O=C(/C=C/c1ccc(-c2ccccc2)cc1)NCCCCCN1CCC(c2c[nH]c3ccccc23)CC1,854 nM,–

SMILES,"XC50 (Plasmodium falciparum, 3D7)",XC50
CCOc1cc2ncnc(Nc3ccc(OCc4ccccc4OC)c(OC)c3)c2cc1OCC,879 nM,–
CC(C)c1ccc(C2CCN(CCCCNC(=O)c3ccc(NC(=O)c4ccc(C(F)(F)F)cc4)cc3)CC2)c(O)c1,579 nM,–
CCNc1cc(C(=O)N[C@@H](Cc2ccccc2)[C@H](O)CNC23CCC(CC2)CC3)cc(N2CCCCS2(=O)=O)c1,63.2 nM,–
O=C(Nc1ccc(C(F)(F)F)cc1)c1cccc(S(=O)(=O)NC2CCN(CC3CCCCC3)CC2)c1,848 nM,–
CN(C)CCNC(=O)NC1CN(c2ncnc3cc(-c4ccccc4)sc23)C1,585 nM,–
Cc1cc(N[C@@H](Cc2ccccc2)C(=O)NCc2cccs2)nc(NCCc2ccccc2)n1,790 nM,–
COc1ccc(C=NN=c2c3ccccc3[nH]c3ccccc23)c2ccccc12,1130 nM,–
C=CCCCNCC(NCCCNc1cc(=O)c2ccccc2[nH]1)c1cc(Br)cc(Br)c1 (stereo not drawn),893 nM,–
COc1cc2cc(-c3nc4ccccc4[nH]3)c(N)nc2cc1OC,168 nM,–
COc1cc(-c2nc3ccc(N4CCN(C)CC4)cc3[nH]2)cc(OC)c1OC,1270 nM,–
COc1cccc(C(=O)N2CCN(Cc3cccc(NC(=O)c4cccs4)c3)CC2)c1,483 nM,–
CCC(C)OC(=O)C1=C(C)NC2=C(C(=O)CC(c3ccc(OC)c(OC)c3)C2)C1c1cccc(O)c1 (stereo not drawn),193 nM,–
CC(=O)N[C@H](C(=O)Nc1ccc(-c2ccc(-c3nc4cc(C(F)(F)F)ccc4[nH]3)cc2)cc1)C(C)C,889 nM,–
Clc1nc2ccccn2c1C=Cc1ccc2ccccc2n1,267 nM,–
CC(=O)Nc1cccc(C(=O)Nc2nc3ccc(-c4cc(=O)[nH]c(Nc5ccccc5Cl)n4)cc3[nH]2)c1,689 nM,–
CN(Cc1ccncc1)C(Cc1ccccc1)C1CCN(Cc2ccc(O)c(Cl)c2)CC1 (stereo not drawn),747 nM,–
NC(=O)c1cccc(Nc2nccc(Nc3ccc(Oc4cccc(Cl)c4)c(Cl)c3)n2)c1,1280 nM,–
CCn1c(C)c(C)c2cc(C(=O)Nc3ccon3)ccc21,732 nM,–
Cn1nc(-c2ccc(S(=O)(=O)NC3CCC(CN4CCC(c5c[nH]c6ccccc56)CC4)CC3)s2)cc1C(F)(F)F (stereo not drawn),820 nM,835 nM
CCCc1cn2c3c(cc(C(=O)N[C@@H](Cc4ccccc4)[C@H](O)CNC4CCOCC4)cc13)N(C)S(=O)(=O)CC2,47.7 nM,–
